Assay [1] deals with T1, KCNH6 (Homo sapiens, UniProt Q9H252).
T1 construct: human KCNH6 gene in pcDNA3.1, transiently expressed in HEK293 cells
T1 sequence (Q9H252 1-958): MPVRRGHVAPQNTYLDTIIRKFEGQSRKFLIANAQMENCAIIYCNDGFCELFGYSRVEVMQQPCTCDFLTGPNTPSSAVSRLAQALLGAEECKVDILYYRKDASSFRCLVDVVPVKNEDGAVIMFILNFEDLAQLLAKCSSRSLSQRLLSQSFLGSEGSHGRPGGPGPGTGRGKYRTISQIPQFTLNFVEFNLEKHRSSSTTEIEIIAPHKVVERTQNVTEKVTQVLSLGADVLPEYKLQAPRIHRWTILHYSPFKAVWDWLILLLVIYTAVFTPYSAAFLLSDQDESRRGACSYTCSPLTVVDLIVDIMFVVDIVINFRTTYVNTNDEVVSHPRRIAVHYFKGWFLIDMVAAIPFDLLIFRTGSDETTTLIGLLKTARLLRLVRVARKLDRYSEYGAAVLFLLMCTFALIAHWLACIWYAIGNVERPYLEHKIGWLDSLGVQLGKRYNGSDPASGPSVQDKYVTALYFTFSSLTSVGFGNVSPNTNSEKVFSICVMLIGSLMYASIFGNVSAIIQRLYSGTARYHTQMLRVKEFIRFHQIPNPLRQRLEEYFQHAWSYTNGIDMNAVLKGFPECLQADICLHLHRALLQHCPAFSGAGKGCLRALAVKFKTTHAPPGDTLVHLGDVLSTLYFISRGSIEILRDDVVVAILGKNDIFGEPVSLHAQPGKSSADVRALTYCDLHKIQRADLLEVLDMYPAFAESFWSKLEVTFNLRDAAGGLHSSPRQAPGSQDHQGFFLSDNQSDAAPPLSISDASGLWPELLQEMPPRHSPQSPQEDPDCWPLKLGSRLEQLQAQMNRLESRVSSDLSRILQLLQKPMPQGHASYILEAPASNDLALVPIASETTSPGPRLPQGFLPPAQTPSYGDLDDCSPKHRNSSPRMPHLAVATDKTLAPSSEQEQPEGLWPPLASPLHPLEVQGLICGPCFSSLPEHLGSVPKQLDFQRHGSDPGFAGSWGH
Put plainly: whole-cell patch-clamp, peak tail current in transfected HEK293 cells. The assay is classed as cell-based. For orientation: The patch-clamp technique gives a direct electrical read-out from membranes.

The target of assay [2] is T1, KCNH6. Put plainly: whole-cell patch-clamp in transfected HEK293 cells (inhibitor control). Type of assay: cell-based.

As a reminder, the IC50 is the concentration at which inhibition is half-maximal. Higher therefore signals weaker potency in that assay.

On to `COc1cc(N)c(Cl)cc1C(=O)NC1CCN(CCCOc2ccc(F)cc2)CC1OC` (centres unmarked) [cisapride], for which, on KCNH6 [1], the 50% inhibitory concentration (IC50) stood at 6.04 nM. Turning to `CN(CCOc1ccc(NS(C)(=O)=O)cc1)CCc1ccc(NS(C)(=O)=O)cc1` [dofetilide], the “whole-cell patch-clamp in transfected HEK293 cells (inhibitor control)” value at KCNH6 [2] is “E4031 and dofetilide were used as inhibitor controls”.

Source of the values: PMC9618959, “Cisapride induced hypoglycemia via the KCNH6 potassium channel” (Frontiers in Endocrinology, 2022).
